Reference: ChEMBL document CHEMBL1938350, “Recent progress in biological activities of synthesized phenothiazines” (Eur J Med Chem, 2011)
Converted amounts (≈) assume the structure as drawn.

Key:
[1] = system: Trichophyton mentagrophytes; test: Antifungal activity against Trichophyton mentagrophytes; type: functional
Saccharomyces cerevisiae = test: Antifungal activity against Saccharomyces cerevisiae; type: functional
[2] = Cytotoxicity against human colon cancer cells; type: functional; conditions: Cancer cell lines, read-out: LC50 (the source's name)
[3] = Cytotoxicity against human leukemia cells; type: functional; conditions: Leukemia cell
WI-38 [4] = test: Antimitotic activity against human non-transformed WI38 cells assessed as monoastral spindle formation at 5 uM after 1 day; type: functional
[5] = target: T1, Kinesin-like protein KIF11 (Homo sapiens, UniProt P52732); test: Inhibition of mitotic kinesin Eg5 in human transformed WI38VA13 cells assessed as inhibition of microtubule-activated ATPase activity; type: cell-based
T1 sequence (P52732 whole entry): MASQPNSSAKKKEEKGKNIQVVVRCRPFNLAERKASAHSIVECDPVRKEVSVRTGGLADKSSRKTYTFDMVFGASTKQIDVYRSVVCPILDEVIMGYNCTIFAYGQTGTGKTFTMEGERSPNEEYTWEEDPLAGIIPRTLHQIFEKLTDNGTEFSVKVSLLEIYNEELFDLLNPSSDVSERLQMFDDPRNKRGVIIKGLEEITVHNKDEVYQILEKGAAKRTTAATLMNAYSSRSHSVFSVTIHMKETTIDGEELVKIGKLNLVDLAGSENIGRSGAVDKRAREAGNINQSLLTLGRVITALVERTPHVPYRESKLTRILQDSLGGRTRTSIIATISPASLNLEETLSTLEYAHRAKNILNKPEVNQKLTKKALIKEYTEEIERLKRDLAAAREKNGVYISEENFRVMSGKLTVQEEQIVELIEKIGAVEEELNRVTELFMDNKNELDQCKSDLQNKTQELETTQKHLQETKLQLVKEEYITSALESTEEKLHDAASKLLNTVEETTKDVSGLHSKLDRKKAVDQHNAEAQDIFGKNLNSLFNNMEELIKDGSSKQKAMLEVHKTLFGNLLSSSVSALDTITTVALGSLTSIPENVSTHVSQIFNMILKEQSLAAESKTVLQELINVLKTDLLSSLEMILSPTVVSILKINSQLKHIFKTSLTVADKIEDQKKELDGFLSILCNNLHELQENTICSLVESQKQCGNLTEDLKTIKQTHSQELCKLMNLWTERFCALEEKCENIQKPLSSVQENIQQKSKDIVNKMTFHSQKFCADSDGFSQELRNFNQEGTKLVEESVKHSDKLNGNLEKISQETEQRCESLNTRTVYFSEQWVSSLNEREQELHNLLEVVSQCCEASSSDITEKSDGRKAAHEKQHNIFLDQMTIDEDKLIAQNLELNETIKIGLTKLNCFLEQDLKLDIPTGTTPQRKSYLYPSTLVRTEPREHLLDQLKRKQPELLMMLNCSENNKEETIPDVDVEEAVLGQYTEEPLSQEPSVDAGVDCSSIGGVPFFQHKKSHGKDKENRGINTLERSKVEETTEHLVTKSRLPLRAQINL

WI-38 [6] = test: Antimitotic activity against human non-transformed WI38 cells assessed as cell viability at 5 uM after 1 day; type: functional; conditions: WI-38, 24 h, read-out: Activity
SK-MEL-5 = test: Cytotoxicity against human SK-MEL-5 cells; type: functional
IGROV-1 = test: Cytotoxicity against human IGROV1 cells; type: functional
[7] = Potentiation of doxorubicin-induced cytotoxicity against human A2780/DX3 cells after 16 hrs; type: functional
[8] = Antiplatelet activity in rabbit platelets assessed as inhibition of collagen-induced platelet aggregation; type: functional, cell-based, Oryctolagus cuniculus
[9] = Antiplatelet activity in rabbit platelets assessed as inhibition of arachidonic acid-induced platelet aggregation; type: functional, cell-based, Oryctolagus cuniculus
Mus musculus = test: Antiinflammatory activity in mouse assessed as inhibition of edema formation; type: functional
[10] = Toxicity in rat; type: organism-based; conditions: in vivo, read-out: ALD50
Rattus norvegicus = species on record: Rattus norvegicus; test: Anticonvulsant activity in rat assessed as inhibition of seizures; type: functional
[11] = Oryctolagus cuniculus, Platelet

In the case of `NCCCCN1c2ccccc2Sc2ccc(C(F)(F)F)cc21`, the MIC [1] is reported as 1.5 µg/mL (≈ 4.43 µM) and the MIC (Saccharomyces cerevisiae) is reported as 0.4 µg/mL (≈ 1.18 µM).
`O=C(NCCCl)NCCCCN1c2ccccc2Sc2ccc(Cl)cc21` gave a CC50 [2] of 5.7 µM and a GI50 [3] of 1.4 µM.
For `OC(CNCCc1ccccc1)CN1c2ccccc2Sc2ccc(Cl)cc21` (stereo unspecified), the Activity (WI-38 [4]) was 90%, the IC50 [5] was 1.52 µM and the viability at 5 µM (WI-38 [6]) was 90%.
With `O=C(NCCCl)NCCN1c2nc3ccccc3cc2Sc2cc3ccccc3nc21` the GI50 (SK-MEL-5) was 0.088 µM.
In the case of `CCN(CC)CCN1c2nc3ccccc3cc2Sc2cc3ccccc3nc21`, the GI50 (IGROV-1) is reported as 0.19 µM.
For `O=C(CSCC1CCCN2CCCCC12)N1c2ccccc2Sc2ccc(Cl)cc21` (stereo unspecified), the “fold change (FC)” value [7] was 3.96.
In the case of `O=C(CSCC1CCCN2CCCCC12)N1c2ccccc2Sc2ccc(C(F)(F)F)cc21` (stereo unspecified), the “fold change (FC)” value [7] is reported as 3.96.
For `COc1ccc2c(c1)N(C(=O)CCSCC1CCCN3CCCCC13)c1ccccc1S2` (stereo unspecified), the “fold change (FC)” value [7] was 3.96.
With `CN(C)c1ccc(/C=N/NC(=O)N2c3ccccc3Sc3ccccc32)cc1` the “inhibition (INH)” value [8] was 100%, the “inhibition (INH)” value [9] was 100% and the “inhibition (INH)” value (Mus musculus) was 20.5%.
In the case of `O=C(O)c1ccc(/C=N/NC(=O)N2c3ccccc3Sc3ccccc32)cc1`, the “inhibition (INH)” value [8] is reported as 100%, the “inhibition (INH)” value [9] is reported as 100% and the “inhibition (INH)” value (Mus musculus) is reported as 51%.
`O=C(N/N=C/c1ccccc1)N1c2ccccc2Sc2ccccc21` gave an IC50 [8, 11] of 2.3 µM and an IC50 [9, 11] of 2.3 µM.
For `NNC(=O)N1c2ccccc2Sc2ccccc21`, the “inhibition (INH)” value [8] was 100% and the “inhibition (INH)” value [9] was 100%.
For `O=C(N/N=C/C1CCCO1)N1c2ccccc2Sc2ccccc21` (stereo unspecified), the “inhibition (INH)” value [8] was 100% and the “inhibition (INH)” value [9] was 100%.
For `O=C(N/N=C/C1CCCS1)N1c2ccccc2Sc2ccccc21` (stereo unspecified), the “inhibition (INH)” value [8] was 100% and the “inhibition (INH)” value [9] was 100%.
In the case of `O=C1NC(=O)C(CNc2nnc(CN3c4ccccc4Sc4ccccc43)o2)C(=O)N1`, the LD50 [10] is reported as 1000 mg/kg and the “inhibition (INH)” value (Rattus norvegicus) is reported as 80%.
For `O=C1NC(=S)NC(=O)C1CNc1nnc(CN2c3ccccc3Sc3ccccc32)s1`, the LD50 [10] was 1000 mg/kg and the “inhibition (INH)” value (Rattus norvegicus) was 80%.
`O=C1N=C([O-])NC1(c1ccccc1)c1ccccc1.[Na+]` [PHENYTOIN SODIUM] showed an LD50 [10] of 1000 mg/kg.
